The text below walks through data of PubChem BioAssay AID1745844 (Carcinogenic Potency Database (CPDB), 2022).

Molecules are shown by their SMILES. Where “and” joins values, the source holds several entries; their conditions need not be identical. Equal entries are not always repeated.

This data set has as its system rodent lifetime carcinogenesis bioassay, tumor incidence TD50. Put plainly: chronic cancer bioassays in animals – CPDB, compiled studies (AID 1745844).

For `O=P(OCCCl)(OCCCl)OCCCl`, the TD50 reads like this: (mouse, strain B6C3F1, females, by gavage, site: Harderian gland, lesion: adenoma + carcinoma, dosed 104 weeks, study length 104 weeks) 1390 mg/kg/day; (mouse, strain B6C3F1, females, by gavage, site: any site (literature study), lesion: several types, types named in the paper, dosed 104 weeks, study length 104 weeks) 610 mg/kg/day; (mouse, strain B6C3F1, females, by gavage, site: liver, lesion: hepatocellular adenoma + hepatocellular carcinoma + neoplastic nodule, dosed 104 weeks, study length 104 weeks) 2870 mg/kg/day; (mouse, strain B6C3F1, females, by gavage, site: lung, lesion: alveolar/bronchiolar adenoma + alveolar/bronchiolar carcinoma, dosed 104 weeks, study length 104 weeks) 4380 mg/kg/day; (mouse, strain B6C3F1, females, by gavage, site: mammary gland, lesion: adenocarcinoma, dosed 104 weeks, study length 104 weeks) 3050 mg/kg/day; (mouse, strain B6C3F1, females, by gavage, site: uterus, lesion: endometrial stromal polyp, dosed 104 weeks, study length 104 weeks) 2420 mg/kg/day. The TD50 (mouse, strain B6C3F1, males, by gavage, site: any site (literature study), lesion: several types, types named in the paper, dosed 104 weeks, study length 104 weeks) amounted to 807 mg/kg/day; the TD50 (mouse, strain B6C3F1, males, by gavage, site: kidney, lesion: tubule adenoma + tubule carcinoma, dosed 104 weeks, study length 104 weeks) is 3510 mg/kg/day and 6810 mg/kg/day; the TD50 (mouse, strain B6C3F1, males, by gavage, site: kidney, lesion: tubule carcinoma, dosed 104 weeks, study length 104 weeks) is 8450 mg/kg/day; the TD50 (mouse, strain B6C3F1, males, by gavage, site: liver, lesion: hepatocellular adenoma + hepatocellular carcinoma + neoplastic nodule, dosed 104 weeks, study length 104 weeks) amounted to 569 mg/kg/day; the TD50 (mouse, strain B6C3F1, males, by gavage, site: lung, lesion: alveolar/bronchiolar adenoma + alveolar/bronchiolar carcinoma, dosed 104 weeks, study length 104 weeks) worked out at 61700 mg/kg/day; the TD50 (mouse, strain Slc:ddY, females, in feed, site: all sites, lesion: leukemia, dosed 78 weeks, study length 78 weeks) was 4790 mg/kg/day. Besides, the TD50 by setting is: (mouse, strain Slc:ddY, females, in feed, site: any site (literature study), lesion: several types, types named in the paper, dosed 78 weeks, study length 78 weeks) 880 mg/kg/day; (mouse, strain Slc:ddY, females, in feed, site: forestomach, lesion: several types, types named in the paper, dosed 78 weeks, study length 78 weeks) 5500 mg/kg/day; (mouse, strain Slc:ddY, females, in feed, site: forestomach, lesion: squamous-cell carcinoma, dosed 78 weeks, study length 78 weeks) 8970 mg/kg/day; (mouse, strain Slc:ddY, females, in feed, site: liver, lesion: hepatocellular adenoma, dosed 78 weeks, study length 78 weeks) 23000 mg/kg/day; (mouse, strain Slc:ddY, males, in feed, site: any site (literature study), lesion: several types, types named in the paper, dosed 78 weeks, study length 78 weeks) 185 mg/kg/day; (mouse, strain Slc:ddY, males, in feed, site: kidney, lesion: renal-cell carcinoma, dosed 78 weeks, study length 78 weeks) 844 mg/kg/day. Also, the TD50 is 539 mg/kg/day (mouse, strain Slc:ddY, males, in feed, site: kidney, lesion: several types, types named in the paper, dosed 78 weeks, study length 78 weeks); 28800 mg/kg/day (mouse, strain Slc:ddY, males, in feed, site: liver, lesion: hepatocellular carcinoma, dosed 78 weeks, study length 78 weeks); 1690 mg/kg/day (mouse, strain Slc:ddY, males, in feed, site: liver, lesion: several types, types named in the paper, dosed 78 weeks, study length 78 weeks); 39.9 mg/kg/day (rat, strain Fischer 344, females, by gavage, site: any site (literature study), lesion: several types, types named in the paper, dosed 104 weeks, study length 104 weeks); 187 mg/kg/day (rat, strain Fischer 344, females, by gavage, site: kidney, lesion: tubule adenoma, dosed 104 weeks, study length 104 weeks); 90.2 mg/kg/day (rat, strain Fischer 344, females, by gavage, site: multiple organs, lesion: mononuclear-cell leukemia, dosed 104 weeks, study length 104 weeks). Moreover, the TD50 came out at 203 mg/kg/day (rat, strain Fischer 344, females, by gavage, site: thyroid gland, lesion: follicular-cell adenoma + follicular-cell carcinoma, dosed 104 weeks, study length 104 weeks); 280 mg/kg/day (rat, strain Fischer 344, females, by gavage, site: thyroid gland, lesion: follicular-cell carcinoma, dosed 104 weeks, study length 104 weeks); 589 mg/kg/day (rat, strain Fischer 344, females, by gavage, site: uterus, lesion: endometrial stromal sarcoma, dosed 104 weeks, study length 104 weeks); 49.5 mg/kg/day (rat, strain Fischer 344, males, by gavage, site: adrenal medulla, lesion: pheochromocytoma benign, bilateral + pheochromocytoma, benign, dosed 104 weeks, study length 104 weeks); 56.8 mg/kg/day (rat, strain Fischer 344, males, by gavage, site: any site (literature study), lesion: several types, types named in the paper, dosed 104 weeks, study length 104 weeks); 705 mg/kg/day (rat, strain Fischer 344, males, by gavage, site: brain + cerebellum, meninges, lesion: granular-cell tumor, benign, dosed 104 weeks, study length 104 weeks). In addition, the TD50 is, setting by setting: (rat, strain Fischer 344, males, by gavage, site: kidney, lesion: tubule adenoma + tubule carcinoma, dosed 104 weeks, study length 104 weeks) 56.4 mg/kg/day; (rat, strain Fischer 344, males, by gavage, site: kidney, lesion: tubule adenoma, dosed 104 weeks, study length 104 weeks) 56.9 mg/kg/day; (rat, strain Fischer 344, males, by gavage, site: kidney, lesion: tubule carcinoma, dosed 104 weeks, study length 104 weeks) 8400 mg/kg/day; (rat, strain Fischer 344, males, by gavage, site: liver, lesion: hepatocellular adenoma + hepatocellular carcinoma + neoplastic nodule, dosed 104 weeks, study length 104 weeks) 633 mg/kg/day; (rat, strain Fischer 344, males, by gavage, site: multiple organs, lesion: mononuclear-cell leukemia, dosed 104 weeks, study length 104 weeks) 107 mg/kg/day; (rat, strain Fischer 344, males, by gavage, site: subcutaneous tissue, lesion: fibroma, dosed 104 weeks, study length 104 weeks) 246 mg/kg/day. Further, the TD50 (rat, strain Fischer 344, males, by gavage, site: thyroid gland, lesion: follicular-cell adenoma + follicular-cell carcinoma, dosed 104 weeks, study length 104 weeks) is 338 mg/kg/day.

Take `O=C1c2ccccc2C(=O)c2c(O)cccc21`: the TD50 (rat, strain ACI/n, males, in feed, site: cecum, lesion: adenocarcinoma, dosed 68 weeks, study length 68 weeks) is 619 mg/kg/day; the TD50 (rat, strain ACI/n, males, in feed, site: cecum, lesion: adenoma, dosed 68 weeks, study length 68 weeks) is 277 mg/kg/day; the TD50 (rat, strain ACI/n, males, in feed, site: colon, lesion: adenocarcinoma, dosed 68 weeks, study length 68 weeks) is 246 mg/kg/day; the TD50 (rat, strain ACI/n, males, in feed, site: colon, lesion: adenoma, dosed 68 weeks, study length 68 weeks) is 219 mg/kg/day; the TD50 (rat, strain ACI/n, males, in feed, site: forestomach, lesion: papilloma, dosed 68 weeks, study length 68 weeks) was 789 mg/kg/day; the TD50 (rat, strain ACI/n, males, in feed, site: large intestine, lesion: several types, types named in the paper, dosed 68 weeks, study length 68 weeks) was 59.2 mg/kg/day. Besides, the TD50 reads like this: (rat, strain ACI/n, males, in feed, site: liver, lesion: hepatocellular carcinoma, dosed 68 weeks, study length 68 weeks) 789 mg/kg/day; (rat, strain ACI/n, males, in feed, site: liver, lesion: neoplastic nodule, dosed 68 weeks, study length 68 weeks) 219 mg/kg/day; (rat, strain ACI/n, males, in feed, site: liver, lesion: several types, types named in the paper, dosed 68 weeks, study length 68 weeks) 219 mg/kg/day; (rat, strain ACI/n, males, in feed, site: stomach, glandular, lesion: adenoma, dosed 68 weeks, study length 68 weeks) 3340 mg/kg/day; (rat, strain ACI/n, males, in feed, site: stomach, lesion: several types, types named in the paper, dosed 68 weeks, study length 68 weeks) 619 mg/kg/day; (rat, strain Fischer 344, males, in feed, site: cecum, lesion: adenocarcinoma, dosed 78 weeks, study length 78 weeks) 432 mg/kg/day. In addition, the TD50 (rat, strain Fischer 344, males, in feed, site: colon, lesion: adenocarcinoma, dosed 78 weeks, study length 78 weeks) was determined as 432 mg/kg/day; the TD50 (rat, strain Fischer 344, males, in feed, site: colon, lesion: several types, types named in the paper, dosed 78 weeks, study length 78 weeks) was 432 mg/kg/day; the TD50 (rat, strain Fischer 344, males, in feed, site: large intestine, lesion: several types, types named in the paper, dosed 78 weeks, study length 78 weeks) was 222 mg/kg/day.

On to `O=C1c2ccccc2C(=O)c2c(O)c(O)cc(O)c21`, for which the TD50 by setting is: (rat, strain Fischer 344, males, in feed, site: urinary bladder, lesion: malignant tumor, dosed 74 weeks, study length 74 weeks) 678 mg/kg/day; (rat, strain Fischer 344, males, in feed, site: urinary bladder, lesion: squamous-cell carcinoma, dosed 74 weeks, study length 74 weeks) 3680 mg/kg/day; (rat, strain Fischer 344, males, in feed, site: urinary bladder, lesion: transitional-cell carcinoma, dosed 74 weeks, study length 74 weeks) 865 mg/kg/day.

`CN(C)CCN(C)N=O`: the TD50 is, setting by setting: (hamster, strain Syrian Golden, females, by gavage, site: colon, lesion: several types, types named in the paper, dosed 61 weeks, study length 106 weeks) 21 mg/kg/day; (hamster, strain Syrian Golden, females, by gavage, site: liver, lesion: hepatocellular tumor, dosed 61 weeks, study length 106 weeks) 44 mg/kg/day; (hamster, strain Syrian Golden, females, by gavage, site: lung, lesion: alveolar/bronchiolar adenoma, dosed 61 weeks, study length 106 weeks) 9.45 mg/kg/day; (hamster, strain Syrian Golden, females, by gavage, site: nasal mucosa, lesion: malignant tumor, dosed 61 weeks, study length 106 weeks) 9.45 mg/kg/day; (hamster, strain Syrian Golden, females, by gavage, site: nasal mucosa, lesion: several types, types named in the paper, dosed 61 weeks, study length 106 weeks) 2.76 mg/kg/day; (hamster, strain Syrian Golden, males, by gavage, site: colon, lesion: adenocarcinoma, dosed 61 weeks, study length 106 weeks) 38.7 mg/kg/day. Further, the TD50 is 11.7 mg/kg/day (hamster, strain Syrian Golden, males, by gavage, site: liver, lesion: hepatocellular tumor, dosed 61 weeks, study length 106 weeks); 38.7 mg/kg/day (hamster, strain Syrian Golden, males, by gavage, site: nasal mucosa, lesion: malignant tumor, dosed 61 weeks, study length 106 weeks); 6.25 mg/kg/day (hamster, strain Syrian Golden, males, by gavage, site: nasal mucosa, lesion: several types, types named in the paper, dosed 61 weeks, study length 106 weeks).
